{"source": "patent US9011862B2", "about": "“Inhibitors of the nitration of amyloid β peptides and their uses in the diagnosis and treatment of Alzheimer's disease” (Rheinische Friedrich-Wilhelms-Universität Bonn, priority 2009, dated 2015)", "key": {"primary microglial cells": {"tested_on": "primary microglial cells", "test": "Microglial phagocytosis of FAM-labeled Aβ1-42", "type": "cell-based, mouse", "details": "500 nM FAM-Aβ1-42", "experimental": "(4A) Analysis of phagocytosis of primary microglia cells from wild type (wt) and iNOS deficient (iNOS (−/−)) mice exposed to 500 nM fibrillar FAM labeled Aβ1-42 peptide for up to 6 h.\nPrimary microglial cell cultures were prepared as previously described. Briefly, mixed glial cultures were prepared from newborn mice and cultured in DMEM supplemented with 10% FCS and 100 U ml^−1 penicillin/streptomycin. After 10-14 days of primary cultivation, microglial cells were harvested by shake off.\nMicroglial phagocytosis of FAM-labeled Aβ1-42 (FAM-Aβ) (Anaspec, San Diego, Calif.) was measured by plate based assay. Cells were plated at 50000 cells per well. After 1 h cells Aβ was added to a final concentration of 500 nM and incubated. Finally, the Aβ-containing medium was removed and extracellular Aβ was quenched with 100 μl 0.2% trypan blue in PBS pH 4.4 for 1 min. After aspiration fluorescence was measured at 485 nm excitation/535 nm emission using a Spectrafluor Plus reader (Tecan, Austria). To normalize for cell numbers 100 μl 50 μg/ml H33342 in PBS was added, incubated for 30 min and the fluorescence measured at 360 nm excitation/465 nm emission."}, "APP/PS1 mice [1]": {"tested_on": "APP/PS1 mice", "test": "Eight arm radial maze test", "type": "in vivo, mouse"}, "APP/PS1 mice [2]": {"tested_on": "APP/PS1 mice", "test": "Hippocampal LTP recording on brain slices of treated mice", "type": "in vivo, mouse", "from_the_text": "(n=5+/−SEM) Right panel: Evaluation of the early (slope 1; […]; […]) of the amplitude of the mean fEPSP (n=5+/−SEM of ten minutes recordings, one-way ANOVA, Newman-Keuls post test, *p<0.05; **p<0.01; ***p<0.001) (2B) Determination of the slope of the mean fEPSP as in A. Right panel: Evaluation of the amplitude of the mean fEPSP (2C) Immunblot of brain homogenates and synaptosomal fractions in wild type and APP/PS1 animals at 12 month of age using an anti-S-nitrocystein specific antibody. (2D) Coomassie stain of anti-S-nitrocystein antibody precipitated synaptosomal fractions from wild type, APP/PS1, APP/PS1 iNOS (−/−) and APP/PS1 L-NIL mice separated by SDS-PAGE (2E) Protein sequence of Hsp75/mortalin. […]\nPhysiological recordings were performed on brain slices from 3 month old male and female mice, obtained after anesthetization with isoflurane and decapitation. […] Basal synaptic transmission (BST) was assessed by plotting the current (mA) against the peak amplitudes of fEPSP to generate input-output relations. Paired pulse facilitation (PPF) were recorded by applying interstimulus intervals of 30, 50, 75 and 100 ms. For long term potentiation (LTP) experiments a 15 min baseline were recorded with a interpulse interval of one minute at an intensity that evoked a response approximately 30% of maximum fEPSP. […]"}, "APP/PS1 mice [3]": {"tested_on": "APP/PS1 mice", "test": "Brain extract Aβ immunoblot and Aβ1-40/Aβ1-42 ELISA", "type": "in vivo, mouse"}, "recombinant IDE [4]": {"biological_target": "T1, recombinant IDE (Homo sapiens, UniProt P14735)", "T1 construct": "purchased R&D", "T1 sequence (P14735 1-1019)": "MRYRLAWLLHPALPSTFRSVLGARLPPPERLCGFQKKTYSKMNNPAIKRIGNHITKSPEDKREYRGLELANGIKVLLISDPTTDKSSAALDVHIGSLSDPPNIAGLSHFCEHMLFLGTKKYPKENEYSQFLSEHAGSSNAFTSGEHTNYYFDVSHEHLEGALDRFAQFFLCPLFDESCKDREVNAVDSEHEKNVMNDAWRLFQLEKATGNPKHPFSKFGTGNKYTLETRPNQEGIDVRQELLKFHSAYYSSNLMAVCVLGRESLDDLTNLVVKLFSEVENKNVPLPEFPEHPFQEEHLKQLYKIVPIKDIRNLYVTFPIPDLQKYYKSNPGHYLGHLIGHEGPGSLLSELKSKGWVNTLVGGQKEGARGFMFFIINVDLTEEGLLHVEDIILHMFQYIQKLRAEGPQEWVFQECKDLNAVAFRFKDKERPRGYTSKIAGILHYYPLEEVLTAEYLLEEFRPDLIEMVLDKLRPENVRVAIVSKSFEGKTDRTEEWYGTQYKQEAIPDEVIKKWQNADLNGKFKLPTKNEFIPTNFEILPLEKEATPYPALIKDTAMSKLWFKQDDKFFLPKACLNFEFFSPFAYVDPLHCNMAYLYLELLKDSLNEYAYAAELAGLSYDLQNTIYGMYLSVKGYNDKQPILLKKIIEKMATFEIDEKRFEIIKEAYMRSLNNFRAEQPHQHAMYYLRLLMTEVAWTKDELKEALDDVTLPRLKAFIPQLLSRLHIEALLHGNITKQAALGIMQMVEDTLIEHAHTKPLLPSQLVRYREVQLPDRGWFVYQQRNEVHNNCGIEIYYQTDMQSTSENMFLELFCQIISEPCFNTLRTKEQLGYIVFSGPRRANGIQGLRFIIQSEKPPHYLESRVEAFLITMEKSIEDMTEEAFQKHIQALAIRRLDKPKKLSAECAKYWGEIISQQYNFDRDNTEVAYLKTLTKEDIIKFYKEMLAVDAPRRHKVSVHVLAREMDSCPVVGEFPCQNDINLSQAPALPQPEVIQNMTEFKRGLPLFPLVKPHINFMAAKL", "test": "Immunoblot of IDE nitration after Sin-1 incubation", "type": "biochemical", "details": "Sin-1 incubated with purified recombinant IDE"}, "Aβ1-42 [5]": {"biological_target": "T2, Aβ1-42 (Homo sapiens, UniProt P05067)", "T2 construct": "Amyloid β 1-42 or Amyloid β 1-42 Y10A (both from rPeptide, Bogart, Ga., USA); host or cells: synthetic peptide", "T2 sequence (P05067 672-713)": "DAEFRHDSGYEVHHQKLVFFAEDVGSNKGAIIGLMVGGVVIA", "test": "Aβ aggregation assay (SDS-PAGE, immunoblot 6E10)", "type": "biochemical", "details": "for high molecular weight (SDS-resistant) aggregates of synthetic Aβ1-42 after incubation with the agent: 5 mM Sin-1 or 0.25 mM peroxynitrite, 18 h", "procedure": "(§1) (6B) Same assay as in A but samples were incubated for different time periods with PN.\n(§2) Peptides were separated by 4-12% Nupage and blotted transferred nitrocelluse and incubated with antibody 6E10 (Signet). The remaining sample was stored at −20° C. and analyzed by mass spectrometry. In case of the time course experiment the reaction was stopped using Nupage sample buffer followed by incubation at 70 C for 5 min.\n(§3) Aβ1-42, Aβ1-42 Y10F (Peptide Specialty Laboratories) were solubilized as previously described. For nitration samples were incubated with 0.25-0.5 mM peroxynitrate in water while vortexing. Aggregation was started by diluting samples to 25 μM using 50 mM Tris-HCl pH 7. Samples were separated by 4-12% NuPAGE and aggregates were detected using anti-body 6E10 (Signet) and 3-NTyr10-Aβ. Aggregation was expressed as a ratio between the signal above 30 kDa and the Aβ monomer, normalized to the 0 time point of Aβ1-42. Thioflavin T fluorescence assays were performed as described previously. Fluorescence was read at 446 nm (excitation) and 482 nm (emission) using a fluorescence spectrophotometer (Varian)."}, "recombinant IDE [6]": {"biological_target": "T1, recombinant IDE", "test": "Aβ degradation assay", "type": "biochemical", "details": "IDE preincubated with increasing concentration of Sin-1, then Aβ1-42 for 2 h", "from_the_text": "Samples were separated by 4-12% NuPAGE and immunoblotted using antibodies PC720 against IDE and 6E10 against Aβ (5E) RIPA fractions of 12 month wild type, APP/PS1 and APP/PS1 iNOS (−/−) animals were monitored for their ability to cleave a fluorgenic peptide substrate in the presence of the neprilysin inhibitor phosphoramidon (n=4+/−SEM, one way anova followed by Tukey post hoc test, […], *p<0.05)"}, "recombinant neprilysin": {"biological_target": "T3, recombinant neprilysin (Homo sapiens, UniProt P08473)", "T3 construct": "purchased R&D", "T3 sequence (P08473 whole entry, species assumed)": "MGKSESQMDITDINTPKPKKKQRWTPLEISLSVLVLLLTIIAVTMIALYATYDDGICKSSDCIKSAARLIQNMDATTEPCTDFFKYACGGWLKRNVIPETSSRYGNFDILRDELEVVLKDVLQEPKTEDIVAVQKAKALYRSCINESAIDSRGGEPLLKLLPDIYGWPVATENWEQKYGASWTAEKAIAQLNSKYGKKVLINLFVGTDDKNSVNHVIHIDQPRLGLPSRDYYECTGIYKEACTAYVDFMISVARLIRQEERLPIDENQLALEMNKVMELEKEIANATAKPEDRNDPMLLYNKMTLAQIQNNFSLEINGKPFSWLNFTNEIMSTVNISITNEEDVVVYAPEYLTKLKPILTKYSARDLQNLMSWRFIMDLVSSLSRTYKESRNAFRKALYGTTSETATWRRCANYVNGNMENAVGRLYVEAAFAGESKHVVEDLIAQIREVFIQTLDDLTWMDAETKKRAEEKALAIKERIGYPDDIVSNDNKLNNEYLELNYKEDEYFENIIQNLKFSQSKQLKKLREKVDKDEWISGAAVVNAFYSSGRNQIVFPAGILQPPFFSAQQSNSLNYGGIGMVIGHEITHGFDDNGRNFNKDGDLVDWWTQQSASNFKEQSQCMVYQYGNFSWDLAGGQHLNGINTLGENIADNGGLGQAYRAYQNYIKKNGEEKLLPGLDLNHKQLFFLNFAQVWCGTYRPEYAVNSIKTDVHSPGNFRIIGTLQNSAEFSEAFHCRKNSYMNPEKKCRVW", "test": "Fluorogenic substrate enzymatic assay, neprilysin", "type": "biochemical", "details": "preincubation with different concentrations of Sin-1", "procedure": "(§4) Afterwards the substrate was added to a final concentration of 10 μM. The hydrolysis of substrate V was measured based on the increase of fluorescence (exitation 320 nm/emission 405 nm) using a Spectrafluor Plus (Tecan, Austria) plate reader for a time period of up to 60 min in 1 min intervals at 37 C. Determination of IDE activity in mouse brain was performed using the fluorogenic peptide substrate 2-aminobenzoyl-[…]-ethylenediamine-2,4-dinitrophenyl (Bachem, Switzerland)^21. For that mice brains were homogenized in PBS containing 1 mM AEBSF, extracted with 1% Tx-100 and centrifuged at 100000×g for 30 min. 10 μg of supernatants were incubated with 25 μM phosphoramidon to inhibit endogenous neprilysin activity. The fluorogenic substrate was added to a final concentration of 20 μM and the resulting fluorescence signal was measured (excitation 320 nm/emission 413 nm) every 3 min for up to 2 h at 37° C. using a infinite 200 plate reader (Tecan, Austria). Evaluation was done within the linear range of the reaction."}, "recombinant IDE [7]": {"biological_target": "T1, recombinant IDE", "test": "Fluorogenic substrate enzymatic assay, IDE", "type": "biochemical", "details": "1 mM Sin-1, 30 min preincubation", "procedure": "as §4"}, "Aβ1-42 [8]": {"tested_on": "Aβ1-42", "test": "Aβ aggregation assay (SDS-PAGE, immunoblot 6E10)", "type": "biochemical, human", "details": "compared with Aβ1-42", "procedure": "as §1, §2, §3"}, "Aβ1-42 [9]": {"tested_on": "Aβ1-42", "test": "Thioflavin T aggregation assay", "type": "biochemical, human", "details": "peptide treated with peroxynitrite, compared with Aβ1-42", "procedure": "as §3"}, "Aβ1-42 [10]": {"biological_target": "T2, Aβ1-42", "test": "In vitro Aβ1-42 aggregation with added nitrated Aβ1-42", "type": "biochemical", "details": "25 μM Aβ1-42, 5 h, antibody IC16"}, "[11]": {"details": "APP/PS1 mice at 3 month of age, L-NIL orally in the water from 2-3 month"}}, "note": "Entries after “also recorded” stand apart in the source; their conditions may differ."}
{"molecule": "CC(=O)N[C@@H](C(=O)O)C(C)(C)SN=O", "note": "(racemic) [SNAP]", "values": [{"measurement": "Aβ1-42 phagocytosis", "setting": "primary microglial cells; SNAP 100 μM", "result": "did not expose differences"}]}
{"molecule": "CC(=N)NCCCC[C@H](N)C(=O)O", "note": "[L-NIL, L-N6-(1-iminoethyl)-lysine]", "values": [{"measurement": "working memory errors", "setting": "APP/PS1 mice [1]; APP/PS1 mice at 3 and 12 months of age (summary statement)", "result": "significant reduction"}, {"measurement": "reference memory errors", "setting": "APP/PS1 mice [1]; [11]", "result": "protected"}, {"measurement": "working memory errors", "setting": "APP/PS1 mice [1]; [11]", "result": "to some extent"}, {"measurement": "reference memory errors", "setting": "APP/PS1 mice [1]; APP/PS1 mice at 12 month of age, L-NIL from 6-12 month (post plaque, therapeutic)", "result": "reversion of APP/PS1 phenotype"}, {"measurement": "working and reference memory errors", "setting": "APP/PS1 mice [1]; APP/PS1 mice treated with L-NIL, age not stated (summary statement)", "result": "reduction"}, {"measurement": "LTP", "setting": "APP/PS1 mice [2]; APP/PS1 mice at 3 months of age (summary statement)", "result": "improvement"}, {"measurement": "APP/PS1 induced reduction (suppression) of early and late phase hippocampal LTP", "setting": "APP/PS1 mice [2]; hippocampal slices of 3 month old mice, L-NIL from 2-3 month, 10 and after induction", "result": "completely prevented; also recorded: not existent"}, {"measurement": "Aβ1-42 phagocytosis", "setting": "primary microglial cells; L-NIL 10 μM", "result": "did not expose differences"}, {"measurement": "levels of insoluble and soluble Aβ40 and Aβ42 by ELISA", "setting": "APP/PS1 mice [3]; 5 month old APP/PS1 mice preventively treated with L-NIL from 2-3 month", "result": "unable to detect any changes"}, {"measurement": "insoluble Aβ by immunoblot and insoluble Aβ 1-40 and Aβ 1-42 by ELISA", "setting": "APP/PS1 mice [3]; 12 month old APP/PS1 mice, L-NIL from 6-12 month", "result": "strong reduction"}]}
{"molecule": "N=c1c[n+](N2CCOCC2)[n-]o1", "note": "[Sin-1, 3-morpholino-sydnonimine]", "values": [{"measurement": "nitration of IDE (nitrotyrosine immunoblot)", "setting": "recombinant IDE [4]", "result": "modifications of IDE detectable with an nitrotyrosine specific antibody"}, {"measurement": "high molecular weight (SDS-resistant) aggregates of synthetic Aβ1-42 after incubation with the agent", "setting": "Aβ1-42 [5]", "result": "strong induction; also recorded: increased generation"}, {"measurement": "degradation of Aβ1-42 by IDE", "setting": "recombinant IDE [6]", "result": "decreased degradation"}, {"measurement": "activity of neprilysin", "setting": "recombinant neprilysin", "result": "could not detect any impact"}, {"measurement": "IDE activity", "setting": "recombinant IDE [7]", "result": "almost complete inhibition"}]}
{"molecule": "O=NOO", "note": "[peroxynitrite]", "values": [{"measurement": "high molecular weight (SDS-resistant) aggregates of synthetic Aβ1-42 after incubation with the agent", "setting": "Aβ1-42 [5]", "result": "increased generation"}, {"measurement": "high molecular weight (SDS-resistant) aggregates of synthetic Aβ1-42 after incubation with the agent", "setting": "Aβ1-42 [5]; listed as peroxynitrit", "result": "strong induction"}, {"measurement": "increase of high molecular aggregates over time", "setting": "Aβ1-42 [5]; within 24 h after peroxynitrite treatment", "result": "x-fold increase"}]}
{"molecule": "Aβ42Y10A: modified human Aβ1-42, tyrosine at position 10 replaced by an alanine (SEQ ID NO. 2)", "values": [{"measurement": "high molecular weight aggregates of the mutated peptide after incubation with peroxynitrite or Sin-1", "setting": "Aβ1-42 [8]", "result": "reduced aggregation to the level of untreated Aβ1-42"}]}
{"molecule": "Aβ42Y10F: Aβ1-42 peptide with a tyrosine to phenylalanine mutation at position 10", "values": [{"measurement": "formation rate of β-sheet amyloid fibril structures (thioflavin T)", "setting": "Aβ1-42 [9]", "result": "prevented"}, {"measurement": "high molecular weight aggregates of the mutated peptide after incubation with peroxynitrite or Sin-1", "setting": "Aβ1-42 [8]", "result": "reduced aggregation to the level of untreated Aβ1-42"}]}
{"molecule": "nitrated Aβ1-42: synthetic Aβ1-42 nitrated at tyrosine 10 by peroxynitrite treatment", "values": [{"measurement": "formation rate of β-sheet amyloid fibril structures (thioflavin T)", "setting": "Aβ1-42 [9]", "result": "increased formation rate"}, {"measurement": "formation of Aβ oligomers on addition of small amounts of nitrated Aβ1-42 species", "setting": "Aβ1-42 [10]", "result": "increased formation"}]}
